Data as given in patent publication US9480253B2, “Use of 3-(2,4,6-Trimethylphenyl)-4-neopentylcarbonyloxy-5,5-tetramethylene-delta-3-dihydrofuran-2-one for controlling psyllids” (BAYER INTELLECTUAL PROPERTY GMBH, priority 2004, dated 2016).

What was measured:
[1] = system: psyllids; settings: under certain conditions; timing of application very limited (De Maeyer et al.); cited from earlier work
[2] = system: Trioza erythreae; experiment: Field spray test against psyllids on orange trees (Example A); assay type: in vivo; settings: 144 g a.i./ha, 240 SC + 0.2% RME; for Efficacy in % Abbott 7TNAA: 540 l water per ha, 7 days after the first treatment; for Efficacy in % Abbott 7TNAB / Efficacy in % Abbott 13TNAB: two applications at interval of one week; for Efficacy in % Abbott 7TNAB: 7 days after the last treatment; for Efficacy in % Abbott 13TNAB: 13 days after the last treatment
Procedure: • Pest: Trioza erythreae • Plant: Orange
The compound of the formula (I) (240 SC) was tested at an application rate of 144 g a.i./ha+0.2% a.i. rapeseed oil methyl ester (RME) at 540 l water per ha in comparison with spirodiclofen application rate comparison.
Spraying was effected by means of a pneumatic knapsack sprayer.
The experiment was carried out using one tree per plot and three replications. In each case two applications were carried out at an interval of one week.
The activity against psyllids was determined by counting the number of live animals on 20 leaves per tree 7 days after the first treatment and 7 and 13 days after the last treatment. The efficacy was calculated with the aid of Abbott's formula.

[3] = known from EP-A-0 528 156; cited from earlier work
[4] = system: insects from the family Psyllidae; experiment: Control of insects from the family Psyllidae, comparison with spirodiclofen; assay type: in vivo
[5] = system: Paratrioza cockerelli; experiment: Field spray test against psyllids on tomato (Example B); assay type: in vivo; settings: 72 g a.i./ha, 240 SC
Procedure: • Pest: Paratrioza cockerelli • Plant: Tomato The compound of the formula (I) (240 SC) was tested at an application rate of 72 […] water application rate of 345 l ha in comparison with Leverage (48 g a.i./ha imidacloprid+33 […]). Spraying was effected by means of a manually operated knapsack sprayer. The experiment was carried out with 10-m^2 plots and three replications. In each case two applications were carried out at an interval of one week. The activity against […] determined by counting the number of live animals on 10 leaves 7 days after the first treatment and 7 and 14 days after the second treatment. The efficacy was calculated with the aid of Abbott's formula.

[6] = system: insects from the family Aleyrodidae; settings: known from EP-A-0 528 156; cited from earlier work

SMILES | ovicidal activity against psyllids [1] | Efficacy in % Abbott 7TNAA [2] [% Abbott] | Efficacy in % Abbott 7TNAB [2] [% Abbott] | Efficacy in % Abbott 13TNAB [2] [% Abbott] | acaricidal activity [3] | effectiveness in controlling insects from the family Psyllidae relative to spirodiclofen [4] | Efficacy in % Abbott 7TNAA ([5]; 345 l water/ha, 7 days after the first treatment) [% Abbott] | Efficacy in % Abbott 7TNAB ([5]; two applications at interval of one week, 7 days after the second treatment) [% Abbott] | Efficacy in % Abbott 14TNAB ([5]; two applications at interval of one week, 14 days after the second treatment) [% Abbott] | activity against insects from the family Aleyrodidae [6]
CCC(C)(C)C(=O)OC1=C(c2ccc(Cl)cc2Cl)C(=O)OC12CCCCC2 [Spirodiclofen, reference compound] | ovicidal activity | 80.3 | 91.5 | 88.1 | – | – | – | – | – | –
Cc1cc(C)c(C2=C(OC(=O)CC(C)(C)C)C3(CCCC3)OC2=O)c(C)c1 [Compound of the formula (I), 3-(2,4,6-Trimethylphenyl)-4-neopentylcarbonyloxy-5,5-tetramethylene-Δ^3-dihydrofuran-2-one] | – | 95 | 97.5 | 95.2 | acaricidal activity | considerably more effective than spirodiclofen | 80.3 | 84.8 | 98.7 | active
